# According to US5262433A, “Tetrazoleacetic acid derivatives and method of aldose reductase inhibition therewith” (Wakamoto Pharmaceutical Co., Ltd., priority 1991, dated 1993):
# What was measured:
# aldose reductase = target: T1, aldose reductase (Rattus norvegicus, UniProt P07943); test: Aldose Reductase Inhibition Test; assay type: biochemical, rat (male SD rats, crystalline lenses); settings: rat lens enzyme; DL-glyceraldehyde 10 mM, pH 6.2, 30° C., 5 minutes
# T1 construct: crystalline lenses were immediately removed and stored at -80° C; from tissue; host or cells: crystalline lenses of six-week-old male SD rats
# Description: Six-week-old male SD rats were anesthetized with ether and killed. The their crystalline lenses were immediately removed and stored at -80° C. The lenses were homogenized in 3 volumes of 135 mM sodium potassium phosphate buffer (pH 7.0) and centrifuged at 30,000 rpm for 30 minutes. The resulting supernatant was dialyzed overnight against 0.05M sodium chloride solution to obtain an aldose reductase solution. All operations were conducted at 4° C. and the enzyme solution was stored at -80° C.
# The activity of aldose reductase was determined according to a partially modified method of J. H. Kinoshita et al. (J. Biol. Chem., 1965, 240, p. 877). More specifically, 0.1 ml of DL-glyceraldehyde (final concentration: 10 mM) was added to 0.9 ml of 100 mM sodium potassium phosphate buffer (pH 6.2) which contained lithium sulfate (final concentrationL 400 mM), reduced nicotinamide adenine dinucleotide phosphate (final concentration: 0.15 mM), the enzyme solution, and the compound to be evaluated (final concentration: 10^-5 M, 10^-6 M, 10^-7 M or 10^-8 M), and then the reaction was conducted at 30° C. for 5 minutes. During the reaction, the change in the absorbance at 340 nm with time was monitored.
# The maximum reducing rate of the absorbance (U) during the reaction was determined. By subtracting, from this value, the maximum reducing rate (U0) at 340 nm of the reaction solution before the addition of the substrate (DL-glyceraldehyde), the reaction rate (V=U-U0) was calculated as a true reaction rate in the presence of the compound to be tested.
# The same procedure was repeated except for the absence of the compound to be tested. A true reaction rate (V0) in case the enzyme was not inhibited was calculated (V0 =U^1 -U0^1). The aldose reductase inhibitory activity of the test compounds was determined according to the following formula:
# Rate of Inhibition (%)=(V0 -V)/V0 ×100
# The concentration of inhibitor giving 50% inhibition of enzyme activity (IC50) was estimated from the least-square regression line of the log dose-response curve.
# [1] = test system: sorbitol accumulation in sciatic nerve; test: Inhibitory activity test against sorbitol accumulation in sciatic nerve of streptozotocin diabetic rats; assay type: in vivo, rat (Sprague-Dawley); settings: for Rate of Inhibition of Sorbitol Accumulation, Sciatic nerve, 10 mg/kg: 10 mg/kg oral once a day for 5 days; for Rate of Inhibition of Sorbitol Accumulation, Sciatic nerve, 100 mg/kg: 100 mg/kg oral once a day for 5 days; for Rate of Inhibition of Sorbitol Accumulation in Sciatic Nerve (10 mg/kg): comparative compounds III (Table 4)
# Description: (§1) Groups of 6 to 8-week-old Sprague-Dawley male rats (4 animals per group) were fasted for 18 hours and streptozotocin was injected through the tail vein in a dose of 60 mg/kg, to obtain diabetic rats.
# (§2) Immediately after the administration of streptozotocin, each compound to be tested was orally administered to these rats in the form of a suspension at a dose of 5 mg/kg, 10 mg/kg and 100 mg/kg (each was suspended in a 0.5% sodium carboxymethyl cellulose solution) once a day (at 9 a.m.) for 5 days.
# (§3) During the test, the rats took diet and drank water freely. Four hours after the final administration of the drug in the 5th day's morning (at 9 a.m.), the rats were sacrificed and then the sciatic nerve and lens were removed to determine the amounts of sorbitol accumulated therein.
# (§4) The results are expressed in the percentage obtained when the value obtained on the control to which no drug was administered is defined 100.
# [2] = test system: sorbitol accumulation in lens; test: Inhibitory activity test against sorbitol accumulation in lens of streptozotocin diabetic rats; assay type: in vivo, rat (Sprague-Dawley); settings: 100 mg/kg oral once a day for 5 days, STZ diabetic rats
# Description: as §1, §2, §3, §4
# [3] = sciatic nerve, STZ diabetic rats
IC50 (aldose reductase) [nM],Compound,sorbitol accumulation rate [1] [%],"Rate of Inhibition of Sorbitol Accumulation, Sciatic nerve, 5 mg/kg ([1]; po, 5 mg/kg, 120 h) [%]","Rate of Inhibition of Sorbitol Accumulation, Sciatic nerve, 10 mg/kg [1, 3] [%]","Rate of Inhibition of Sorbitol Accumulation, Sciatic nerve, 100 mg/kg [1, 3] [%]","Rate of Inhibition of Sorbitol Accumulation, lens, 100 mg/kg [2] [%]","Rate of Inhibition of Sorbitol Accumulation, Sciatic nerve, 5 mg/kg ([1]; sciatic nerve, 5 mg/kg oral once a day for 5 days, STZ diabetic rats) [%]",Rate of Inhibition of Sorbitol Accumulation in Sciatic Nerve (10 mg/kg) ([1]; sciatic nerve) [%]
360,"O=C(Cn1nnnc1-c1ccsc1)OCCO [Example 1, [5-(3-thienyl)tetrazol-1-yl] acetic acid 2-hydroxyethyl ester]",73,48,73,102,50,–,–
3100,"O=C(Cn1nnnc1-c1ccccc1)OCCO [Example 6, (5-phenyltetrazol-1-yl) acetic acid 2-hydroxyethyl ester]",–,29,46,103,24,–,–
360,"O=C(Cn1nnnc1-c1ccoc1)OCCO [Example 12, [5-(3-furyl)tetrazol-1-yl] acetic acid 2-hydroxyethyl ester]",–,41,70,107,68,–,–
–,"O=C(Cn1nnnc1-c1ccsc1)OCCCO [Example 15, [5-(3-thienyl)tetrazol-1-yl]acetic acid 3-hydroxypropyl ester]",–,24,37,110,36,–,–
390,"O=C(Cn1nnnc1-c1ccsc1)OCCCCO [Example 16, [5-(3-thienyl)tetrazol-1-yl]acetic acid 4-hydroxybutyl ester]",–,-5,35,103,-10,–,–
1300,"O=C(Cn1nnnc1-c1ccsc1)OCCCCCO [Example 18, [5-(3-thienyl)tetrazol-1-yl]acetic acid 5-hydroxypentyl ester]",–,-27,16,102,7,–,–
210,"COCCOC(=O)Cn1nnnc1-c1ccsc1 [Example 19, [5-(3-thienyl)tetrazol-1-yl]acetic acid 2-methoxyethyl ester]",–,22,38,103,13,–,–
–,"CC(/C=C1\SC(=S)N(CC(=O)O)C1=O)=C\c1ccccc1 [ONO-2235, (E)-3-carboxymethyl-5-[(2E)-methyl-30 phenylpropenylidene]rhodan, reference compound]",–,–,0,40,–,0,–
–,"CCOC(=O)Cn1nnnc1-c1ccsc1 [compound 2, reference compound]",63,–,–,–,–,–,–
–,O=C(O)Cn1nnnc1-c1ccsc1 [reference compound],–,–,–,–,–,–,53
–,[5-(2-methylthio-3-thienyl)tetrazol-1-yl]acetic acid 2-hydroxyethyl ester [Example 2],–,–,–,–,–,–,63
–,[5-(2-thienyl)tetrazol-1-yl] acetic acid 2-hydroxyethyl ester [Example 3],–,–,–,–,–,–,35
–,[5-[5-(3-phenylpropyl)-2-thienyl]tetrazol-1-yl]acetic acid 2-hydroxyethyl ester [Example 5],–,–,–,–,–,–,40
–,[5-[(3-methylsulfonylamino)-2-thienyl]tetrazol-1-yl] acetic acid 2-hydroxyethyl ester [Example 4],–,–,–,–,–,–,40
